How the values were obtained:
Experiment in all cases: relative viability (nuclei count vs DMSO), 5 days (fraction); higher = more cells survive
[1] = compound: NC(=O)[C@@H](CCC(F)(F)F)N(Cc1ccc(-c2ncon2)cc1F)S(=O)(=O)c1ccc(Cl)cc1 [Avagacestat] + CC(C)C[C@H](NC(=O)[C@H](Cc1ccccc1)NC(=O)c1cnccn1)B(O)O [Bortezomib] (partner 0.002 µM)
Summary of the method: (§1)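 Relative viability was taken as the ratio of nuclei in treated wells to nuclei in vehicle wells. Lung cancer cell lines in 1536-well plates received compounds by pin tool one day after seeding, either one drug alone or a fixed anchor-drug dose plus five library-drug doses (not always all listed) in √10 steps. Nuclei were counted on 4× images after 5 days of treatment, and values are medians of duplicate plates.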

[2] = compound: NC(=O)[C@@H](CCC(F)(F)F)N(Cc1ccc(-c2ncon2)cc1F)S(=O)(=O)c1ccc(Cl)cc1 [Avagacestat] + CS(=O)(=O)N1CCN(Cc2cc3nc(-c4cccc5[nH]ncc45)nc(N4CCOCC4)c3s2)CC1 [Pictilisib] (partner 1 µM)
Summary of the method: as §1

[3] = compound: NC(=O)[C@@H](CCC(F)(F)F)N(Cc1ccc(-c2ncon2)cc1F)S(=O)(=O)c1ccc(Cl)cc1 [Avagacestat] + O=C(c1cc(Cc2n[nH]c(=O)c3ccccc23)ccc1F)N1CCN(C(=O)C2CC2)CC1 [Olaparib] (partner 8 µM)
Summary of the method: as §1

[4] = compound: NC(=O)[C@@H](CCC(F)(F)F)N(Cc1ccc(-c2ncon2)cc1F)S(=O)(=O)c1ccc(Cl)cc1 [Avagacestat] + CC(=O)Nc1cccc(-n2c(=O)n(C3CC3)c(=O)c3c(Nc4ccc(I)cc4F)n(C)c(=O)c(C)c32)c1 [Trametinib] (partner 0.02 µM)
Summary of the method: as §1

Cell Line | relative viability ([1]; first compound 0.08 µM) | relative viability ([1]; first compound 0.253 µM) | relative viability ([1]; first compound 0.8 µM) | relative viability ([1]; first compound 2.53 µM) | relative viability ([1]; first compound 8 µM) | relative viability ([2]; first compound 0.08 µM) | relative viability ([2]; first compound 0.253 µM) | relative viability ([2]; first compound 0.8 µM) | relative viability ([2]; first compound 2.53 µM) | relative viability ([2]; first compound 8 µM) | relative viability ([3]; first compound 0.08 µM) | relative viability ([3]; first compound 0.253 µM) | relative viability ([3]; first compound 0.8 µM) | relative viability ([3]; first compound 2.53 µM) | relative viability ([3]; first compound 8 µM) | relative viability ([4]; first compound 0.08 µM) | relative viability ([4]; first compound 0.253 µM) | relative viability ([4]; first compound 0.8 µM) | relative viability ([4]; first compound 2.53 µM) | relative viability ([4]; first compound 8 µM)
201T | 1.1 | 1.08 | 1.2 | 1.11 | 1.09 | 0.737 | 0.7 | 0.664 | 0.691 | 0.661 | 0.925 | 0.812 | 0.871 | 0.79 | 0.737 | 0.732 | 0.749 | 0.761 | 0.691 | 0.625
A549 |  |  |  |  |  | 0.795 | 0.632 | 0.458 | 0.462 | 0.403 | 0.465 | 0.301 | 0.622 | 0.265 | 0.34 |  |  |  |  | 
A-427 | 0.957 | 1.08 | 1.07 | 1.07 | 1.08 | 0.72 | 0.832 | 0.745 | 0.763 | 0.817 | 0.832 | 0.778 | 0.83 | 0.684 | 0.751 | 0.84 | 0.898 | 0.71 | 0.694 | 0.742
ABC-1 | 0.325 | 0.294 | 0.362 | 0.273 | 0.271 | 1 | 0.753 | 0.861 | 0.679 | 0.711 | 0.904 | 0.512 | 0.836 | 0.776 | 0.757 |  |  |  |  | 
BEN | 0.936 | 0.789 | 0.954 | 0.533 | 0.775 | 0.679 | 0.621 | 0.58 | 0.529 | 0.534 | 1.12 | 1.24 | 1.05 | 0.838 | 1.05 | 1.1 | 1.18 | 1.05 | 0.917 | 1.13
CAL-12T | 1.13 | 0.982 | 1.42 | 1.09 | 1.14 | 0.734 | 0.47 | 0.719 | 0.624 | 0.48 | 0.73 | 0.715 | 0.773 | 0.782 | 0.83 | 0.407 | 0.417 | 0.418 | 0.413 | 0.443
COR-L23 | 1.58 | 1.3 | 1.14 | 1.03 | 0.528 | 1.07 | 0.878 | 0.774 | 0.653 | 0.397 | 0.326 | 0.3 | 0.339 | 0.308 | 0.284 | 0.765 | 0.741 | 0.818 | 0.632 | 0.414
COR-L 105 | 0.894 | 0.681 | 0.689 | 0.697 | 0.687 | 0.38 | 0.447 | 0.326 | 0.319 | 0.419 | 0.724 | 0.664 | 0.845 | 0.601 | 0.565 | 0.401 | 0.45 | 0.457 | 0.42 | 0.474
Calu-6 | 1.27 | 1.09 | 1.08 | 1.17 | 0.975 | 1.3 | 1.03 | 1.18 | 0.913 | 1.02 | 0.7 | 0.862 | 0.722 | 0.609 | 0.585 |  |  |  |  | 

Source: the supplement of paper PMC10307832
